Laboratory results from PMC9238271, “The quorum sensing peptide EntF* promotes colorectal cancer metastasis in mice: a new factor in the host-microbiome interaction” (BMC Biology, 2022).
“And” between values parts separate entries of the source, which are not always exact repeats. Identical values can stand only once.

Assays:
[1] = In vitro metabolization of EntF: formation of EntF* in feces homogenate; format: in vitro ADME, C57BL/6 female mice; settings: for EntF* Conc / EntF* without metabolisation, Conc / EntF*/EntF %: Feces, initial concentration EntF 31.82 µM
Method: Krebs-Henseleit (KH) buffer (Sigma-Aldrich, Belgium) was prepared by dissolving the powdered medium in 900 mL water while stirring. Once the powder was completely dissolved, 0.3790 g CaCl2•2H2O and 2.098 g NaHCO3 were added to the solution. NaOH or HCl was used to adjust the pH to 7.4. The solution was brought to final volume (1000 mL) with ultrapure water.
Feces homogenates were prepared, after collecting fecal material from two untreated C57BL/6 female mice after cervical dislocation, by using the same procedures employed for colon tissue homogenate preparation. Before use, the homogenate was diluted to a final protein concentration of 0.6 mg/mL.
To avoid the absorption of EntF* onto plasticware and glassware, all tubes and containers were coated with a BSA-based anti-adsorption solution before use.
Five hundred microliters of tissue homogenate were mixed with 400 μL of pre-warmed KH buffer. Then, 100 μL of KH buffer (blank) or 1 mg/mL EntF peptide solution (test) were added to the diluted homogenate and incubated at 37 °C. […] After centrifugation at 16,000g for 30 min at 5 °C, supernatants were analyzed by LC1-MS1 for EntF* quantification.
(§1) EntF* was detected and quantified on a Waters Acquity® UPLC H-class system, connected to a Waters Xevo™ TQ-S triple quadrupole mass spectrometer with electrospray ionization (operated in positive ionization mode). Autosampler tray and column oven were kept at 10 ± 5 °C and 60 ± 5 °C, respectively. Chromatographic separation was achieved on a Waters Acquity® UPLC BEH Peptide C18 column (300 Å, 1.7 μm, 2.1 mm × 100 mm). The mobile phases consisted of 93/2/5 water/acetonitrile/DMSO (V/V/V) containing 0.1% formic acid (mobile phase A) and 2/93/5 water/acetonitrile/DMSO (V/V/V) containing 0.1% formic acid (mobile phase B), and the flow rate was set to 0.5 mL/min. A 10-μL aliquot from each sample was injected. The gradient program started with 80% of mobile phase A for 1 min, followed by a linear gradient to 40% of mobile phase A for 3.5 min. Gradient was then changed to 14.2% mobile phase A at 5 min, followed by a 1 min equilibration, before starting conditions were applied. EntF* retention time was between 4.25 and 4.45 min.
An optimized capillary voltage of 3.00 kV, a cone voltage of 20.00 V, and a source offset of 50.0 V were used. Acquisition was done in the MRM mode. The selected precursor ion for EntF* was m/z 865.7 with two selected product ions at m/z 202.08 (36 eV, b2 fragment) as quantifier and m/z 315.17 (31 eV, b3 fragment) as qualifier.

[2] = test system: tumor nodules in the liver; assay: Orthotopic mouse model: histopathological evaluation of liver; format: in vivo, female athymic nude mice (Swiss nu/nu)
Method: (§2) Six-week-old female athymic nude mice (Swiss nu/nu) were anesthetized, and a minimally invasive midline laparotomy was performed to localize the cecum. The cecum was then gently pulled out, and luciferase-transfected HCT-8/E11 cells (1 × 10^6 cells) in 20 μL serum-free DMEM medium with Matrigel (1:1) were injected into the cecal wall. Before implantation, cells were treated with EntF* (10^2 nM), Phr0662 (10^2 nM), vehicle (PBS), or TGFα positive control (0.1 μg mL^−1) solutions for 5 days. The cecum was then carefully placed back into the abdominal cavity and the surgical incision was closed with two layers of sutures with PDS 6-0. […] Once a week, mice were examined for tumor growth and metastases using bioluminescent imaging with the IVIS Lumina II (Perkin Elmer, Belgium) after i.p. injection with 200 μL luciferin (150 mg kg^−1). After 6 weeks, mice were euthanized using cervical dislocation, and the liver, diaphragm, lungs, cecum, duodenum, and peritoneum were macroscopically examined for the presence of tumor nodules. Liver and lung tissues were then fixed in formalin for 24 h and stored in 70% ethanol for maximum 3 days before embedding in paraffin. Next, a hematoxylin and eosin (H&E) staining was performed on 8 μm sections, and 3 sections per mouse were visualized using microscopy. Slides from tumor-bearing mice were analyzed by two blinded, independent investigators using the scoring system described in Additional file 5: Table S3. In case of differences, slides were scored by a third blinded, independent investigator for consensus.

[3] = test system: tumor nodules in the lungs; assay: Orthotopic mouse model: histopathological evaluation of lungs; format: in vivo, female athymic nude mice (Swiss nu/nu)
Method: as §2

[4] = Serum kinetic profile and daily EntF* exposure after i.p. injection; format: in vivo, female Swiss nu/nu mice
Method: Fifty microliters of serum were mixed with 150 μL 0.5% formic acid in acetonitrile. After sonication for 5 min, samples were vortexed for 5 s, then heated for 30 s at 100 °C. The solution was vortexed and centrifuged for 20 min at 20,000g at 4 °C. The supernatant was purified using solid phase extraction (SPE) on HyperSep C18 plates (Thermo Fisher Scientific, Belgium), previously conditioned with acetonitrile and equilibrated with 75% acetonitrile in water, containing 0.375% formic acid. After loading 150 μL of each sample, 120 μL eluent were collected and organic solvents evaporated using nitrogen (1 L/min) for 5 min. The resulting samples were further diluted with 30 μL of BSA-based anti-adsorption solution, and analyzed by LC-MS.
as §1
To calculate daily peptide exposure, female Swiss nu/nu mice (n = 14) were i.p. injected with 25 μL of 100 μM EntF*, their serum withdrawn at different time points and analyzed by LC1-MS1. A distribution and early exponential phase (α, 0-30 min), followed by a terminal elimination phase (β, 30–180 min) could be distinguished. The exposure was determined over a period of 24 h (x) as follows: ExposurenMxmin=∫030Ae^-αt+∫30xBe^-βt .

[5] = 6 weeks of treatment, H&E histopathological score, n = 30 EntF*, n = 8 PBS

For `CC(C)C[C@@H]1NC(=O)[C@H](CO)NC(=O)[C@H](Cc2ccccc2)NC(=O)[C@H](C(C)C)NC(=O)[C@@H](NC(=O)[C@H](CCC(=O)O)NC(=O)[C@@H](NC(=O)[C@H](CC(C)C)NC(=O)[C@H](CC(N)=O)NC(=O)[C@@H](N)CO)C(C)C)CSSC[C@@H](C(=O)N[C@@H](CC(N)=O)C(=O)O)NC(=O)[C@H](CCCCN)NC(=O)[C@H](CCCCN)NC(=O)[C@H](Cc2ccccc2)NC1=O` (single isomer, unassigned) [EntF*], which “EntF* Conc” value ([1]; Time 0) is on record?
Its value is 0.00 µM.

And the “EntF* without metabolisation, Conc” value ([1]; Time 0)?
The value was 0.0 µM.

And the “EntF*/EntF %” value ([1]; Time 0)?
Its value is 0.0%.

What about the “EntF* Conc” value ([1]; Time 1) of the same molecule?
The value was 0.50 µM.

And the “EntF* without metabolisation, Conc” value ([1]; Time 1)?
Its value is 0.529 µM.

And the “EntF*/EntF %” value ([1]; Time 1)?
Its value is 1.7%.

And the “EntF* Conc” value ([1]; Time 5)?
The value was 3.00 µM.

What about the “EntF* without metabolisation, Conc” value ([1]; Time 5) of the same molecule?
Its value is 3.9 µM.

And the “EntF*/EntF %” value ([1]; Time 5)?
Its value is 12.4%.

And the “EntF* Conc” value ([1]; Time 10)?
The value was 2.69 µM.

What about the “EntF* without metabolisation, Conc” value ([1]; Time 10) of the same molecule?
The value was 4.6 µM.

And the “EntF*/EntF %” value ([1]; Time 10)?
Its value is 14.5%.

And the “EntF* Conc” value ([1]; Time 30)?
The value was 2.33 µM.

And the “EntF* without metabolisation, Conc” value ([1]; Time 30)?
Its value is 11.8 µM.

What about the “EntF*/EntF %” value ([1]; Time 30) of the same molecule?
The value was 37.1%.

What about the “Formation rate, Faeces, Average” value ([1]; mouse feces homogenate, Krebs-Henseleit buffer pH 7.4, 37 °C, LC1-MS1, average of X1-X4) of the same molecule?
The value was 1.71 %*min-1.

And the “Formation rate, Faeces” value ([1]; mouse feces homogenate, Krebs-Henseleit buffer pH 7.4, 37 °C, LC1-MS1, replicate X1)?
Its value is 1.6635 %*min-1.

What about the “Formation rate, Faeces” value ([1]; mouse feces homogenate, Krebs-Henseleit buffer pH 7.4, 37 °C, LC1-MS1, replicate X2) of the same molecule?
Its value is 2.4748 %*min-1.

What about the “Formation rate, Faeces” value ([1]; mouse feces homogenate, Krebs-Henseleit buffer pH 7.4, 37 °C, LC1-MS1, replicate X3) of the same molecule?
The value was 1.4512 %*min-1.

And the “Formation rate, Faeces” value ([1]; mouse feces homogenate, Krebs-Henseleit buffer pH 7.4, 37 °C, LC1-MS1, replicate X4)?
The value was 1.2367 %*min-1.

And the “number of tumor nodules in the liver compared to the vehicle” value [2, 5]?
The value was “significantly higher number of tumor nodules”.

And the “Histology scoring LIVER, conclusion per group” value ([2]; per group)?
The value was 1.

What about the “number of tumor nodules in the lungs compared to the vehicle” value [3, 5] of the same molecule?
The value was “significantly higher number of tumor nodules”.

And the “Histology scoring LUNGS, Scoring person 1 (ND)” value ([3]; individual samples, one line per sample)?
Its value is 3 and 4 and 0 and 1.

What about the “Histology scoring LUNGS, conclusion per group” value ([3]; per group) of the same molecule?
Its value is 1.

What about the “Daily exposure during CRC experiment, Exposure (nM*min), Distribution phase” value ([4]; after 100 nmol kg-1 EntF* i.p. injection) of the same molecule?
Its value is 74.91 nM·min.

What about the “Distribution phase, serum level, Average” value ([4]; after 100 nmol kg-1 EntF* i.p. injection, 5 min, mean of n = 4) of the same molecule?
Its value is 4.2292.

And the “Distribution phase, serum level, Average” value ([4]; after 100 nmol kg-1 EntF* i.p. injection, 10 min, mean of n = 4)?
Its value is 2.596.

What about the “Distribution phase, serum level, Average” value ([4]; after 100 nmol kg-1 EntF* i.p. injection, 15 min, mean of n = 4) of the same molecule?
The value was 2.427.

What about the “Elimination phase, serum level, Average” value ([4]; after 100 nmol kg-1 EntF* i.p. injection, 60 min, mean of n = 4) of the same molecule?
The value was 0.2851.

What about the “Elimination phase, serum level, Average” value ([4]; after 100 nmol kg-1 EntF* i.p. injection, 120 min, mean of n = 4) of the same molecule?
The value was 0.389.

What about the level at time molar at 0.5 h ([4]; female, Swiss nu/nu, mouse, serum, ip, after 100 nmol kg-1 EntF* i.p. injection, 30 min, mean of n = 4, read-out: Distribution phase / Elimination phase, serum level, Average) of the same molecule?
The level at time molar at 0.5 h was 0.854 nM.

What about the level at time molar at 3 h ([4]; female, Swiss nu/nu, mouse, serum, ip, after 100 nmol kg-1 EntF* i.p. injection, 180 min, mean of n = 4, read-out: Elimination phase, serum level, Average) of the same molecule?
Its level at time molar at 3 h is 0.195 nM.

What about the “EntF* serum concentration” value ([4]; serum, 5 min after i.p. injection, Xgem (mean of 4 values)) of the same molecule?
The value was 4.2292 nM.

What about the “EntF* serum concentration” value ([4]; serum, 10 min after i.p. injection, Xgem (mean of 4 values)) of the same molecule?
Its value is 2.5962 nM.

What about the “EntF* serum concentration” value ([4]; serum, 15 min after i.p. injection, Xgem (mean of 4 values)) of the same molecule?
The value was 2.4271 nM.

What about the “EntF* serum concentration” value ([4]; serum, 30 min after i.p. injection, Xgem (mean of 4 values)) of the same molecule?
Its value is 0.8544 nM.

And the “EntF* serum concentration” value ([4]; serum, 60 min after i.p. injection, Xgem (mean of 4 values))?
Its value is 0.2851 nM.

What about the “EntF* serum concentration” value ([4]; serum, 120 min after i.p. injection, Xgem (mean of 4 values)) of the same molecule?
Its value is 0.3890 nM.

What about the “EntF* serum concentration” value ([4]; serum, 180 min after i.p. injection, replicate X1,2) of the same molecule?
The value was 0.4699 nM.

What about the “EntF* serum concentration” value ([4]; serum, 180 min after i.p. injection, replicate X2,2) of the same molecule?
The value was 0.5336 nM.
